Data from patent US20250352500A1, “USE OF PHENOLIC ACIDS DERIVATIVES IN TREATING ISCHEMIC STROKE” (LANZHOU UNIVERSITY, priority 2022, published 2025).

Tests used:
Assay type in all cases: in vivo, male C57/BL mice
[1] = test system: GFAP; experiment: GFAP protein Western blot in brain tissue; conditions: for GFAP protein expression reduced compared with MCAO group: 72 h ischemia-reperfusion, three days of administration, compound 2 100 mg/kg, compound 1 50 mg/kg
Experimental: (§1) Grouping and administration method: Male C57/BL mice weighing 23±1 g were randomly divided into sham operation group (SHAM), model group (MCAO), compound 2 group (100 mg/kg), and compound 1 group (50 mg/kg), with 10 mice in each group. Mice in the SHAM group underwent vascular isolation, but no […] was administered, and no treatment was given before or after surgery. The model group mice were constructed with MCAO models and were not treated before and after surgery. The treatment group was treated with compound 2 or compound 1 on the basis of the model group. Mice with a neurological score of 0 after reperfusion and those that died before 72 hours post-surgery were excluded. The administration time for animal behavior tests was seven times at 0 h, 1 day, 2 days, 3 days, 4 days, 5 days, and 6 days after reperfusion, while the administration time for other experiments was three times at 0 h, 1 day, and 2 days after reperfusion. The drug was administered through the tail vein, and the sham operation group and model group were given equal amounts of saline.
After 72 hours of ischemia-reperfusion, the protein expression level of GFAP, a marker of astrocytes in brain tissue, was detected with Western blot. The representative Western blot (WB) images of GFAP protein expression in the brain tissues of the sham operation group (SHAM), model group (MCAO), compound 2 group, and compound 1 group are shown in FIG. 6A, and the quantitative statistical results are shown in FIG. 6B. […] In this experiment, β-actin was used as an internal reference protein. n=3, data are mean±SEM, analyzed using one-way ANOVA and Tukey's HSD test. *P<0.05, **P<0.01, ***P<0.001. ^#P<0.05, ^##P<0.01, ^###P<0.001. * indicates comparison with the SHAM group, # indicates comparison with the compound 2 group.

[2] = test system: TNF-α; experiment: TNF-α protein Western blot in brain tissue; conditions: 72 h; for TNF-α protein expression reduced compared with MCAO group: three days of administration, compound 2 100 mg/kg, compound 1 50 mg/kg, P<0.001
Experimental: as §1
(§2) To investigate the effect of compounds on the expression of inflammatory factors after ischemia-reperfusion, this study used immunofluorescence experiments to observe the expression of TNF-α, IL-1β, IL-6, iNOS, and COX2 proteins in brain tissue. […] The concentrations of TNF-α, IL-1β, and IL-6 in brain homogenate were detected by enzyme-linked immunosorbent assay (ELISA), and the expression level of TNF-α protein in brain tissue was detected by Western blot.
After 72 hours of ischemia-reperfusion, the expression level of TNF-α protein in brain tissue was detected by Western blot. […] In this experiment, β-actin was used as an internal reference protein. n=3, data are presented as mean±SEM, analyzed with one-way ANOVA, and subjected to Tukey's HSD test. *P<0.05, **P<0.01, ***P<0.001. ^#P<0.05, ^##P<0.01, ^###P<0.001. * indicates a comparison with the SHAM group, ^# indicates a comparison with the compound 2 group.

[3] = test system: IL-6; experiment: ELISA of IL-6 in brain homogenate; conditions: 72 h, three days of administration, compound 2 100 mg/kg, compound 1 50 mg/kg
Experimental: as §1, with “The administration time for animal behavior tests was seven times at 0 h, 1 day, 2 days, 3 days, 4 days, 5 days, and 6 days after reperfusion, while the administration time for other experiments was three times at 0 h, 1 day, and 2 days after reperfusion. The drug was administered through the tail vein, and the sham operation group and model group were given equal amounts of saline.” left out
as §2
(§3) After 72 hours of ischemia-reperfusion, the expression levels of inflammatory factors TNF-α, IL-1β, and IL-6 in the mouse brain homogenate were detected.

[4] = test system: HIF-1α; experiment: HIF-1α immunofluorescence in brain tissue; conditions: 72 h ischemia-reperfusion, three days of administration; compound 2 100 mg/kg, compound 1 50 mg/kg; MCAO group 568±60; mean±SEM, n=3
Experimental: as §1, with “The administration time for animal behavior tests was seven times at 0 h, 1 day, 2 days, 3 days, 4 days, 5 days, and 6 days after reperfusion, while the administration time for other experiments was three times at 0 h, 1 day, and 2 days after reperfusion. The drug was administered through the tail vein, and the sham operation group and model group were given equal amounts of saline.” left out
After 72 hours of ischemia-reperfusion, the expression changes of the inflammatory factor HIF-1α in the brain region were analyzed by immunofluorescence staining. […] Compared with the compound 1 group, the number of HIF-1α-positive cells in the compound 2 group was lower (197±33 vs 250±54/mm^2, P<0.001). n=3, data are presented as mean±SEM, analyzed using one-way ANOVA, and subjected to Tukey's HSD test. *P<0.05, **P<0.01, ***P<0.001. ^#P<0.05, ^##P<0.01, ^###P<0.001. * indicates a comparison with the MCAO group, ^# indicates comparison with the compound 2 group.

[5] = test system: MCAO model mice; experiment: Body weight change after ischemia-reperfusion
Experimental: as §1
At the same time, the weight change and survival rate of mice after ischemia-reperfusion were analyzed.

[6] = test system: IL-1β; experiment: ELISA of IL-1β in brain homogenate; conditions: 72 h, three days of administration, compound 2 100 mg/kg, compound 1 50 mg/kg
Experimental: as §1, with “The administration time for animal behavior tests was seven times at 0 h, 1 day, 2 days, 3 days, 4 days, 5 days, and 6 days after reperfusion, while the administration time for other experiments was three times at 0 h, 1 day, and 2 days after reperfusion. The drug was administered through the tail vein, and the sham operation group and model group were given equal amounts of saline.” left out
as §2, §3

[7] = test system: iNOS; experiment: RT-qPCR of iNOS mRNA in brain tissue; conditions: 72 h, three days of administration, compound 2 100 mg/kg, compound 1 50 mg/kg, P<0.05
Experimental: as §1, with “The administration time for animal behavior tests was seven times at 0 h, 1 day, 2 days, 3 days, 4 days, 5 days, and 6 days after reperfusion, while the administration time for other experiments was three times at 0 h, 1 day, and 2 days after reperfusion. The drug was administered through the tail vein, and the sham operation group and model group were given equal amounts of saline.” left out
as §2
After 72 hours of ischemia-reperfusion, the mRNA expression levels of TNF-α, IL-1β, IL-6, iNOS, and COX2 in brain tissue were detected and analyzed by RT-qPCR. […]

SMILES: O=C(O)c1cc(O)ccc1O [compound 1]
- GFAP protein expression reduced compared with MCAO group [1]: 25±10%
- TNF-α protein expression reduced compared with MCAO group [2]: 20±10%
- Decrease in IL-6 expression compared with MCAO group [3]: reduced to varying degrees
- Number of HIF-1α-positive cells [4]: 250±54 /mm^2
- Body weight compared with the compound 2 group ([5]; 7th day after reperfusion, compound 1 50 mg/kg vs compound 2 100 mg/kg, P<0.05): significantly decreased
- Decrease in IL-1β expression compared with MCAO group [6]: reduced to varying degrees
- iNOS mRNA expression compared with MCAO group [7]: significantly reduced

SMILES: O=C(O)c1cc(OP(=O)(O)O)ccc1OP(=O)(O)O [compound 2]
- GFAP protein expression reduced compared with the compound 1 group ([1]; 72 h, compound 2 100 mg/kg vs compound 1 50 mg/kg, P<0.05): 45±10%
- GFAP protein expression reduced compared with MCAO group [1]: 43±12%
- TNF-α protein expression decreased compared with the compound 1 group ([2]; compound 2 100 mg/kg vs compound 1 50 mg/kg, P<0.05): 31±20%
- TNF-α protein expression reduced compared with MCAO group [2]: 40±12%
- Decrease in IL-6 expression compared with MCAO group [3]: 40±10%
- Number of HIF-1α-positive cells [4]: 197±33 /mm^2
- Body weight compared with MCAO group ([5]; 7th day of reperfusion, 100 mg/kg tail vein): inhibited the decrease in body weight
- Decrease in IL-1β expression compared with MCAO group [6]: 32±9%
- iNOS mRNA expression compared with MCAO group [7]: significantly reduced
